In patent US9359308B2, “Pyrazine kinase inhibitors” (Portola Pharmaceuticals, Inc., priority 2011, dated 2016) one finds IC50 data, which are given here for 35 compounds.

The test addresses T1, full length active recombinant SYK enzyme (Homo sapiens, UniProt P43405).
T1 construct: full length active recombinant SYK enzyme (Millipore, Calif.); purchased Millipore
As to the kind of experiment: Inhibition of Syk tyrosine phosphorylation activity (LANCE TR-FRET kinase assay). The class given is biochemical. The note with it: activity in the Syk assays, class symbols. A digest of the protocol: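 IC50 was derived by non-linear regression of TR-FRET signal (Eu-W1024-PY100 donor, streptavidin-APC acceptor) read 1 h after EDTA quench. The kinase step ran 1 h at room temperature with 1 nM full-length SYK, 550 nM biotinylated DEEDYESP substrate and 100 μM ATP in Tris pH 7.5/MgCl2/DTT at 3% final DMSO.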
Regarding `Cc1nsc(Nc2nc(N[C@@H]3CCCC[C@@H]3N)cnc2C(N)=O)c1C` [Example 131, 5-(((1R,2S)-2-aminocyclohexyl)amino)-3-((3,4-dimethylisothiazol-5-yl)amino)pyrazine-2-carboxamide], the 50% inhibitory concentration (IC50) is under 1 nM. Consider `NC(=O)c1ncc(N[C@@H]2CCCC[C@@H]2N)nc1Nc1ccc2nccn2c1` [Example 425, 5-(((1R,2S)-2-aminocyclohexyl)amino)-3-(imidazo[1,2-a]pyridin-6-ylamino)pyrazine-2-carboxamide], for which the IC50 is 1 to 10 nM. The figure for `Cc1cc(Nc2nc(N[C@H](CCS(C)(=O)=O)C(N)=O)cnc2C(N)=O)sn1` [Example 400, (R)-5-(1-amino-4-(methylsulfonyl)-1-oxobutan-2-ylamino)-3-(3-methylisothiazol-5-ylamino)pyrazine-2-carboxamide] is 10 to 100 nM; for `CC[C@@H](Nc1nc(Nc2cc(C)ns2)c(C(N)=O)nc1Cl)C(N)=O` [Example 137, (R)-5-((1-amino-1-oxobutan-2-yl)amino)-6-chloro-3-((3-methylisothiazol-5-yl)amino)pyrazine-2-carboxamide] it is 10 to 100 nM; for `CC[C@@H](Nc1cnc(C(N)=O)c(Nc2cncc(Cl)c2)n1)C(N)=O` [Example 223, (R)-5-(1-amino-1-oxobutan-2-ylamino)-3-(5-chloropyridin-3-ylamino)pyrazine-2-carboxamide] it is 10 to 100 nM. With `CC(C)(C)C[C@@H](Nc1cnc(C(N)=O)c(Nc2cnn(C3CC3)c2)n1)C(N)=O` [Example 259, (R)-5-(1-amino-4,4-dimethyl-1-oxopentan-2-ylamino)-3-(1-cyclopropyl-1H-pyrazol-4-ylamino)pyrazine-2-carboxamide] the figure was 10 to 100 nM; with `NC(=O)c1ncc(N[C@@H]2CCCC(F)(F)[C@@H]2N)nc1Nc1ccc2ncccc2c1` [Example 14, 5-((1R,2R)-2-amino-3,3-difluorocyclohexylamino)-3-(quinolin-6-ylamino)pyrazine-2-carboxamide], 1 to 10 nM; with `NC(=O)c1ncc(N[C@@H]2CCCC(F)(F)[C@@H]2N)nc1Nc1ccc(-c2ccno2)cc1` [Example 18, 5-((1R,2R)-2-amino-3,3-difluorocyclohexylamino)-3-(4-(isoxazol-5-yl)phenylamino)pyrazine-2-carboxamide], 10 to 100 nM. With `CC[C@@H](Nc1cnc(C(N)=O)c(Nc2ccc(OC)nc2)n1)C(N)=O` [Example 317, (R)-5-(1-amino-1-oxobutan-2-ylamino)-3-(6-methoxypyridin-3-ylamino)pyrazine-2-carboxamide] the figure was 10 to 100 nM; with `COc1cncc(Nc2nc(N[C@H](CC(C)C)C(N)=O)cnc2C(N)=O)c1` [Example 323, (R)-5-(1-amino-4-methyl-1-oxopentan-2-ylamino)-3-(5-methoxypyridin-3-ylamino)pyrazine-2-carboxamide], 1 to 10 nM; with `CC[C@@H](Nc1cnc(C(N)=O)c(Nc2cccc3c2ccn3C)n1)C(N)=O` [Example 394, (R)-5-(1-amino-1-oxobutan-2-ylamino)-3-(1-methyl-1H-indol-4-ylamino)pyrazine-2-carboxamide], 1 to 10 nM.

On to `NC(=O)c1ncc(N[C@@H]2CCCC[C@@H]2N)nc1Nc1ccc(C(=O)N2CCC2)nc1` [Example 280, 5-((1R,2S)-2-aminocyclohexylamino)-3-(6-(azetidine-1-carbonyl)pyridin-3-ylamino)pyrazine-2-carboxamide], for which the IC50 lay in the range of 10 to 100 nM.

In the case of `CC[C@@H](Nc1cnc(C(N)=O)c(Nc2cnc3ccccc3c2)n1)C(N)=O` [Example 73, (R)-5-(1-amino-1-oxobutan-2-ylamino)-3-(quinolin-3-ylamino)pyrazine-2-carboxamide], the IC50 was 1 to 10 nM.

As to `NC(=O)c1ncc(NC2(C(N)=O)CCC2)nc1Nc1ccc2ncccc2c1` [Example 34, 5-(1-carbamoylcyclobutylamino)-3-(quinolin-6-ylamino)pyrazine-2-carboxamide], the IC50 was 1 to 10 nM. With `CC[C@@H](Nc1cnc(C(N)=O)c(Nc2ccnc(N(C)C)c2)n1)C(N)=O` [Example 353, (R)-5-(1-amino-1-oxobutan-2-ylamino)-3-(2-(dimethylamino)pyridin-4-ylamino)pyrazine-2-carboxamide] the figure was 1 to 10 nM; with `Cc1nsc(Nc2nc(N[C@@H]3CCCC[C@@H]3N)cnc2C(N)=O)c1-c1cccnc1` [Example 121], 100 to 1000 nM. The figure for `NC(=O)c1ncc(N[C@@H]2CCCC(F)(F)[C@@H]2N)nc1Nc1ccc2c(c1)COCC2` [Example 451, 5-(((1R,2R)-2-amino-3,3-difluorocyclohexyl)amino)-3-(isochroman-7-ylamino)pyrazine-2-carboxamide] is 1 to 10 nM; for `Cc1cccc(Nc2nc(N[C@H]3CC[C@@H](N)CC3)cnc2C(N)=O)c1` [Example 183, 5-((1s,4s)-4-aminocyclohexylamino)-3-(m-tolylamino)pyrazine-2-carboxamide] it is 10 to 100 nM. The figure for `CC[C@@H](Nc1cnc(C(N)=O)c(Nc2cnc(N(C)C)c(C)c2)n1)C(N)=O` [Example 314, (R)-5-(1-amino-1-oxobutan-2-ylamino)-3-(6-(dimethylamino)-5-methylpyridin-3-ylamino)pyrazine-2-carboxamide] is 100 to 1000 nM; for `CC[C@@H](Nc1cnc(C(N)=O)c(Nc2cc(-c3ccccc3)ns2)n1)C(N)=O` [Example 403, (R)-5-(1-amino-1-oxobutan-2-ylamino)-3-(3-phenylisothiazol-5-ylamino)pyrazine-2-carboxamide] it is 10 to 100 nM; for `CC[C@@H](Nc1cnc(C(N)=O)c(Nc2cnn(-c3ccccc3)c2)n1)C(N)=O` [Example 173, (R)-5-(1-amino-1-oxobutan-2-ylamino)-3-(1-phenyl-1H-pyrazol-4-ylamino)pyrazine-2-carboxamide] it is 10 to 100 nM.

`CC(C)[C@@H](Nc1cnc(C(N)=O)c(Nc2cnc3c(F)cccc3c2)n1)C(N)=O` [Example 204, (R)-5-(1-amino-3-methyl-1-oxobutan-2-ylamino)-3-(8-fluoroquinolin-3-ylamino)pyrazine-2-carboxamide]: the concentration for half-maximal inhibition (IC50) lay in the range of 1 to 10 nM.

As for `Cc1nsc(Nc2nc(N[C@@H]3CCCC[C@@H]3N)cnc2C(N)=O)c1-c1ccccc1` [Example 120, 5-(((1R,2S)-2-aminocyclohexyl)amino)-3-((3-methyl-4-phenylisothiazol-5-yl)amino)pyrazine-2-carboxamide], the concentration for half-maximal inhibition (IC50) fell in the range of 10 to 100 nM. With `NC(=O)c1ncc(N[C@@H]2CCCC(F)(F)[C@@H]2N)nc1Nc1cc(F)c2ncccc2c1` [Example 210, 5-((1R,2R)-2-amino-3,3-difluorocyclohexylamino)-3-(8-fluoroquinolin-6-ylamino)pyrazine-2-carboxamide] the figure was 1 to 10 nM; with `CC(C)(C)C[C@@H](Nc1cnc(C(N)=O)c(Nc2cncc(F)c2)n1)C(N)=O` [Example 247, (R)-5-(1-amino-4,4-dimethyl-1-oxopentan-2-ylamino)-3-(5-fluoropyridin-3-ylamino)pyrazine-2-carboxamide], 1 to 10 nM; with `NC(=O)c1ncc(N[C@@H]2CCCC[C@@H]2N)nc1Nc1cccc(-c2ncccn2)c1` [Example 12, 5-((1R,2S)-2-aminocyclohexylamino)-3-(3-(pyrimidin-2-yl)phenylamino)pyrazine-2-carboxamide], 1 to 10 nM.

Take `NC(=O)c1ncc(N[C@@H]2CCCC[C@@H]2N)nc1NC1CCCC1` [Example 36, 5-((1R,2S)-2-aminocyclohexylamino)-3-(cyclopentylamino)pyrazine-2-carboxamide]: the IC50 was over 1000 nM.

Consider `CC[C@@H](Nc1cnc(C(N)=O)c(Nc2ccnc(C)c2)n1)C(N)=O` [Example 178, (R)-5-(1-amino-1-oxobutan-2-ylamino)-3-(2-methylpyridin-4-ylamino)pyrazine-2-carboxamide], for which the 50% inhibitory concentration (IC50) fell in the range of 10 to 100 nM. As for `CC[C@@H](Nc1cnc(C(N)=O)c(Nc2cnc3ccc(F)cc3c2)n1)C(N)=O` [Example 232, (R)-5-(1-amino-1-oxobutan-2-ylamino)-3-(6-fluoroquinolin-3-ylamino)pyrazine-2-carboxamide], the IC50 was 1 to 10 nM. Consider `NC(=O)c1ncc(N[C@H](CC2CC2)C(N)=O)nc1Nc1cnc2ccccc2c1` [Example 7, (R)-5-(1-amino-3-cyclopropyl-1-oxopropan-2-ylamino)-3-(quinolin-3-ylamino)pyrazine-2-carboxamide], for which the 50% inhibitory concentration (IC50) is 1 to 10 nM. The figure for `Cc1cc(Nc2nc(N[C@@H]3CCCC[C@@H]3N)cnc2C(N)=O)sn1` [Example 328, 5-((1R,2S)-2-aminocyclohexylamino)-3-(3-methylisothiazol-5-ylamino)pyrazine-2-carboxamide] is under 1 nM; for `COc1ccc(Nc2nc(N[C@@H](C(N)=O)C(C)C)cnc2C(N)=O)cc1OC` [Example 141, (R)-5-(1-amino-3-methyl-1-oxobutan-2-ylamino)-3-(3,4-dimethoxyphenylamino)pyrazine-2-carboxamide] it is 10 to 100 nM; for `NC(=O)c1ncc(N[C@@H]2CCCC(F)(F)[C@@H]2N)nc1Nc1ccc2ccncc2c1` [Example 385, 5-((1R,2R)-2-amino-3,3-difluorocyclohexylamino)-3-(isoquinolin-7-ylamino)pyrazine-2-carboxamide] it is 1 to 10 nM.

With `CCc1cc(Nc2nc(N[C@H](CC)C(N)=O)cnc2C(N)=O)sn1` [Example 221, (R)-5-(1-amino-1-oxobutan-2-ylamino)-3-(3-ethylisothiazol-5-ylamino)pyrazine-2-carboxamide], the 50% inhibitory concentration (IC50) lay in the range of 1 to 10 nM.

Consider `CC(=O)N(C)c1ccc(Nc2nc(N[C@@H](C(N)=O)C(C)C)cnc2C(N)=O)cc1` [Example 157, (R)-5-(1-amino-3-methyl-1-oxobutan-2-ylamino)-3-(4-(N-methylacetamido)phenylamino)pyrazine-2-carboxamide], for which the IC50 was 100 to 1000 nM.
